# Test results taken from publication PMC10686834, “Targeting myeloid chemotaxis to reverse prostate cancer therapy resistance” (Nature, 2023).
# Test system: patients with ARSI-resistant mCRPC
# Assay: Phase 1 trial of AZD5069 plus enzalutamide: safety and tolerability (DLTs, treatment-emergent adverse events, NCI-CTCAE v.4.0)
# Format: in vivo
# Description: The primary trial objective was to evaluate the safety and tolerability of the combination. Key secondary objectives were to evaluate pharmacokinetic–pharmacodynamic parameters and antitumour activity.
# Eligible patients were consenting patients aged ≥18 years, who had mCRPC with histologically confirmed prostate adenocarcinoma histology, documented cancer progression at the time of trial entry by Response Evaluation Criteria in Solid Tumors (v.1.1) and/or Prostate Cancer Working Group 2 criteria, and PSA of ≥10 ng ml^−1 at screening.
# The dose-escalation phase used a rule-based 3 + 3 design, with an initial three patients enrolled per dose level. If none of the first three patients experienced a DLT, dose escalation proceeded to the next dose level. […] If fewer than two of six patients at any dose level experienced a DLT, dose escalation continued to the next level. If at least two out of up to six patients experienced a DLT, dose escalation stopped and this dose level was defined as the maximum administered dose. Once this maximum administered dose was defined, the maximum tolerated dose (MTD) was confirmed at the dose level below the maximum administered dose. At least six evaluable patients were required to establish the MTD at a specific dose level. […] Intra-patient dose escalation was not permitted. Start of dosing between the first and second patient enrolled to each dose level was staggered by 1 week. Once the MTD was determined in the phase 1 study, the recommended phase 2 dose was determined on the basis of available data, including but not limited to safety and response.
# DLTs were defined as described in the study protocol. […] Prophylaxis with growth factor support or antipyretics were not permitted. Investigators determined whether an adverse event was related to the study drugs. If a patient experienced clinically significant and/or unacceptable toxicity, including a DLT, not attributable to the disease or disease-related processes, dosing was interrupted or the dose was reduced and supportive therapy was administered as required.
structure (smiles),measurement,setting,value
C[C@@H](Oc1cc(NS(=O)(=O)N2CCC2)nc(SCc2cccc(F)c2F)n1)[C@@H](O)CO [AZD5069],"TEAE Oedema genital, All G",AZD5069 320 mg BD (n=7),0 (0) n (%)
same,"TEAE Oedema genital, G≥3",AZD5069 320 mg BD (n=7),0 (0) n (%)
same,"TEAE Platelet decreased, All G",AZD5069 320 mg BD (n=7),0 (0) n (%)
same,"TEAE Platelet decreased, G≥3",AZD5069 320 mg BD (n=7),0 (0) n (%)
same,"TEAE Pruritus, All G",AZD5069 320 mg BD (n=7),0 (0) n (%)
same,"TEAE Pruritus, G≥3",AZD5069 320 mg BD (n=7),0 (0) n (%)
same,"TEAE Skin infection, All G",AZD5069 320 mg BD (n=7),0 (0) n (%)
same,"TEAE Skin infection, G≥3",AZD5069 320 mg BD (n=7),0 (0) n (%)
same,"TEAE Vomiting, All G",AZD5069 320 mg BD (n=7),0 (0) n (%)
same,"TEAE Vomiting, G≥3",AZD5069 320 mg BD (n=7),0 (0) n (%)
same,"TEAE White blood cell decreased, All G",AZD5069 320 mg BD (n=7),1 (14) n (%)
same,"TEAE White blood cell decreased, G≥3",AZD5069 320 mg BD (n=7),0 (0) n (%)
same,"TEAE Anemia, All G",All patients (n=23),4 (17) n (%)
same,"TEAE Anemia, G≥3",All patients (n=23),1 (4) n (%)
same,"TEAE Aphasia, All G",All patients (n=23),1 (4) n (%)
same,"TEAE Aphasia, G≥3",All patients (n=23),0 (0) n (%)
same,"TEAE Arthralgia, All G",All patients (n=23),1 (4) n (%)
same,"TEAE Arthralgia, G≥3",All patients (n=23),0 (0) n (%)
same,"TEAE Aspartate aminotransferase increased, All G",All patients (n=23),1 (4) n (%)
same,"TEAE Aspartate aminotransferase increased, G≥3",All patients (n=23),0 (0) n (%)
same,"TEAE Constipation, All G",All patients (n=23),2 (9) n (%)
same,"TEAE Constipation, G≥3",All patients (n=23),0 (0) n (%)
same,"TEAE Death, All G",All patients (n=23),1 (4) n (%)
same,"TEAE Death, G≥3",All patients (n=23),1 (4) n (%)
same,"TEAE Decreased appetite, All G",All patients (n=23),1 (4) n (%)
same,"TEAE Decreased appetite, G≥3",All patients (n=23),0 (0) n (%)
same,"TEAE Diarrhoea, All G",All patients (n=23),1 (4) n (%)
same,"TEAE Diarrhoea, G≥3",All patients (n=23),1 (4) n (%)
same,"TEAE Dry skin, All G",All patients (n=23),1 (4) n (%)
same,"TEAE Dry skin, G≥3",All patients (n=23),0 (0) n (%)
same,"TEAE Fatigue, All G",All patients (n=23),7 (30) n (%)
same,"TEAE Fatigue, G≥3",All patients (n=23),0 (0) n (%)
same,"TEAE Headache, All G",All patients (n=23),3 (13) n (%)
same,"TEAE Headache, G≥3",All patients (n=23),0 (0) n (%)
same,"TEAE Hypophosphataemia, All G",All patients (n=23),1 (4) n (%)
same,"TEAE Hypophosphataemia, G≥3",All patients (n=23),0 (0) n (%)
same,"TEAE Nausea, All G",All patients (n=23),5 (22) n (%)
same,"TEAE Nausea, G≥3",All patients (n=23),0 (0) n (%)
same,"TEAE Neutrophil decreased, All G",All patients (n=23),19 (83) n (%)
same,"TEAE Neutrophil decreased, G≥3",All patients (n=23),11 (48) n (%)
same,"TEAE Oedema genital, All G",All patients (n=23),1 (4) n (%)
same,"TEAE Oedema genital, G≥3",All patients (n=23),0 (0) n (%)
same,"TEAE Platelet decreased, All G",All patients (n=23),2 (9) n (%)
same,"TEAE Platelet decreased, G≥3",All patients (n=23),0 (0) n (%)
same,"TEAE Pruritus, All G",All patients (n=23),1 (4) n (%)
same,"TEAE Pruritus, G≥3",All patients (n=23),0 (0) n (%)
same,"TEAE Skin infection, All G",All patients (n=23),1 (4) n (%)
same,"TEAE Skin infection, G≥3",All patients (n=23),0 (0) n (%)
same,"TEAE Vomiting, All G",All patients (n=23),1 (4) n (%)
same,"TEAE Vomiting, G≥3",All patients (n=23),0 (0) n (%)
same,"TEAE White blood cell decreased, All G",All patients (n=23),3 (13) n (%)
same,"TEAE White blood cell decreased, G≥3",All patients (n=23),0 (0) n (%)
same,permanent treatment discontinuation due to treatment-emergent adverse events,all dose levels,no permanent treatment discontinuation
same,"treatment-emergent anaemia, all grades","all dose levels, 23 patients",17%
same,"treatment-emergent anaemia, grade ≥ 3","all dose levels, 23 patients",4%
same,"treatment-emergent constipation, all grades","all dose levels, 23 patients",9%
same,"treatment-emergent fatigue, all grades","all dose levels, 23 patients",30%
same,"treatment-emergent headache, all grades","all dose levels, 23 patients",13%
same,"treatment-emergent leukopaenia, all grades","all dose levels, 23 patients",13%
same,"treatment-emergent nausea, all grades","all dose levels, 23 patients",22%
same,"treatment-emergent neutropaenia, all grades","all dose levels, 23 patients",83%
same,"treatment-emergent neutropaenia, grade ≥ 3","all dose levels, 23 patients",48%
same,"treatment-emergent thrombocytopaenia, all grades","all dose levels, 23 patients",9%
